Assay results published in patent US7314858B2, “Retrocyclins: antiviral and antimicrobial peptides” (priority 2001, dated 2008).
Entries after “also recorded” stand apart in the source; their conditions may differ. Where a SMILES comes first, the peptide text is derived from it. Bridges are numbered along the chain shown (N, C = ends).

Experiments:
[1] = system: ME-180 cervical carcinoma cells; settings: 100 μg/ml
L. monocytogenes EGD = assay: Two-stage radial diffusion assay; assay type: cell-based, Listeria monocytogenes
Protocol: (§1) FIG. 4. Effect of salt on antibacterial activity of circular minidefensins. Human retrocyclin and monkey RTD-1 were tested against our standard lab stains: E. coli ML-35p, P. aeruginosa MR 3007, L. monocytogenes EGD, and S. aureus 930918. The bars show MIC values±SEM values that resulted from 3-6 radial diffusion assays per organism and assay condition.
(§2) The effects of NaCl on the antimicrobial activity of retrocyclin and RTD-1, from two-stage radial diffusion assays, are compared in FIG. 4.

H9 cells = assay: MTT cytotoxicity assay; assay type: cell-based, human; settings: 100 μg/ml
Protocol: (§3) FIG. 8. Cytotoxicity of antimicrobial peptides against H9 cells. Retrocyclin, RTD-1 and PG-1 (a porcine-derived peptide with anti-HIV-1 activity) were tested for cytotoxicity using an MTT assay for cell proliferation. Note that the EC50 of Retrocyclin and RTD-1 were >100 μg/ml, concentrations well above their antiviral concentration.
(§4) Retrocyclin is not cytotoxic. […] Retrocyclin was not hemolytic for human erythrocytes.

MTT cytotoxicity assay = assay type: cell-based, human; settings: human, H9 cells
Protocol: as §3, §4

HIV-IIIB = assay: Direct inactivation of HIV-1 virions (preincubation with virus, dilution, infection of H9 cells); assay type: cell-based; settings: 200 μg/ml, 30 min, then diluted 190-fold
Protocol: FIG. 12. […] Retrocyclin (2-200 μg/ml) was incubated with HIV-IIIB (MOI=10^−2) diluted in R10 media prior to infecting H9 cells. p24 antigen release was measured by ELISA. Limit of detection=10 pg/ml.
To determine if retrocyclin directly inactivated HIV-1 virions, HIV-IIIB (MOI 10^−2) was incubated with 2 μg/ml, 20 μg/ml, or 200 μg/ml retrocyclin for 30 min at room temperature in R10 media. […] Viral replication was measured by collecting supernatant for 9 days at 3 day intervals to quantify HIV-1 p24 antigen by ELISA (FIG. 12). […] In this respect, the actions of retrocyclin are different from the direct inactivation of herpes simplex virus previously observed with human and rabbit α-defensins.

HIV-1 strain IIIB = assay: HIV-1 IIIB infection of CD4+ PBMC, p24 antigen ELISA; assay type: cell-based; settings: for inhibition of HIV-1 replication (p24): CD4+ PBMC, IIIB (X4), peptide 10-20 μg/ml
Protocol: FIG. 5A-C. Anti-HIV-1 activity of retrocyclin. Two strains of HIV-1 and two types of human target cells were used. The IIIB strain is T-cell tropic (X4) and utilizes the CXCR4 co-receptor for entry; the JR-CSF strain is M-tropic (R5) and uses CCR5 for entry. PBMC signifies CD4^+-selected peripheral blood mononuclear cells. […] (A) Two concentrations of retrocyclin (2 μg/ml, 20 μg/ml), 20 μg/ml of the Rhesus circular defensin “RTD-1”, and 20 μg/ml of a horseshoe crab-derived peptide “T140”, reported to only prevent X4 infections, were tested in antiviral assays of against strain IIIB in H9 cells (n=2-6 per peptide; error bars indicate SEM). (B) To confirm our results with primary human cells, similar assays were performed utilizing IIIB virus and CD4^+ PBMC or (C) JR-CSF virus and CD4^+ PBMC. […] Average of duplicate experiments are reported for studies with PBMCs. Assay sensitivity=10 pg/ml.
Either HIV-1-permissive H9 cells were used as targets, or primary CD4^+ lymphocytes from HIV-1-seronegative donors generated from freshly purified peripheral blood mononuclear cells (PBMC) stimulated with a CD3-CD8 bispecific monoclonal antibody. […] These cells were maintained in RPMI containing 10% FCS supplemented with 2 mM glutamine, 100 U of penicillin/ml, 10 μg of streptomycin/ml, and 50 U of interleukin 2/ml (R10-50 media).
Examining the effect of adding retrocyclin at various times pre- and post-HIV-1 infection. […] Primary CD4^+ PBMC were incubated with HIV-IIIB (FIG. 6) or HIV-JR-CSF for 3 hours in the presence or absence of 20 μg/ml retrocyclin. The cells were subsequently washed in media, and incubated an additional 9 days. Retrocyclin (20 μg/ml) was added back to some of the cultures at time points specified in FIG. 6 and infection was monitored by p24 ELISA as previously described. […]

E. coli ML-35p = assay: Two-stage radial diffusion assay; assay type: cell-based, Escherichia coli
Protocol: as §1, §2

human red blood cells = assay: Hemagglutination of washed red blood cells in PBS; settings: washed human red blood cells in PBS
Protocol: Hemagglutination was tested by adding the stated concentration of peptide to a well comprising red blood cells (shown in FIG. 22). When the RBC are agglutinated, they clump together and settle rapidly and form a diffuse circle covering much of the bottom of the well. In the absence of agglutination, they settle more slowly and form a compact red button in the center of the well.
Sequences of retrocyclin-related peptides that were synthesized and either tested for activity against HIV-1 (see FIGS. 21A and 21B) and/or for their ability to cause human red blood cells to hemagglutinate or both. NT signifies not tested. Linear sequences appear in the table, but all peptides were cyclic and contained three intramolecular disulfide bonds. Hemagglutination of washed human red blood cells was tested in PBS, at peptide concentrations of 50, 25, 12.5 6.25 and 3.12 μg/ml. The lowest concentrations that caused hemagglutination are shown. Peptide concentrations were determined by amino acid analysis or by AUC (area under the curve) RP-HPLC analysis with reference to amino-acid analyzed standards.

[2] = Preliminary surface plasmon resonance, sphingolipid binding; settings: preliminary SPR

For `CC[C@H](C)[C@@H]1NC(=O)CNC(=O)[C@H](CCCNC(=N)N)NC(=O)CNC(=O)[C@@H]2CSSC[C@H](NC1=O)C(=O)N[C@@H](CCCNC(=N)N)C(=O)N[C@H]1CSSC[C@H](NC(=O)[C@H](CCCNC(=N)N)NC(=O)[C@@H]3CSSC[C@H](NC(=O)[C@H]([C@@H](C)CC)NC1=O)C(=O)NCC(=O)N[C@@H](CCCNC(=N)N)C(=O)NCC(=O)N[C@@H]([C@@H](C)CC)C(=O)N3)C(=O)N[C@@H]([C@@H](C)CC)C(=O)N2` [RC-100, Retrocyclin] (cyclo(GICRCICGRGICRCICGR); disulfide 3-16, 5-14, 7-12), the hemolysis (human erythrocytes) was “not hemolytic”, the “cytotoxicity (MTT)” value [1] was “little to no cytotoxicity” and the “effect of salt on antimicrobial activity” value (L. monocytogenes EGD; hypersalinity (175 mM NaCl)) was “only modestly inhibitory”. For the same molecule, the antimicrobial activity (L. monocytogenes EGD; physiological (100 mM) NaCl) was “strong activity”, the “cytotoxicity (MTT)” value (H9 cells) was “little to no cytotoxicity” and the EC50 (MTT cytotoxicity assay) was > 100 µg/mL. For the same molecule, the “HIV titer after incubation of virus with peptide” value (HIV-IIIB) was “not reduced”, the “reduction of p24 concentration” value (HIV-1 strain IIIB; 20 μg/ml added 24 hours after initial infection) was ~1000 fold and the “inhibition of HIV-1 replication (p24)” value (HIV-1 strain IIIB) was “complete suppression; also recorded: uniformly protective”. For the same molecule, the “effect of salt on antimicrobial activity” value (E. coli ML-35p; hypersalinity (175 mM NaCl)) was “only modestly inhibitory”, the antimicrobial activity (E. coli ML-35p; physiological (100 mM) NaCl) was “strong activity” and the “Hemagglutination seen at a concentration of (lowest concentration that caused hemagglutination)” value (human red blood cells) was 6 to 12.5 µg/mL. For the same molecule, the “binding to sphingolipids (galactosylceramide)” value [2] was “binds with high affinity”.

For `CC[C@H](C)[C@@H]1NC(=O)CNC(=O)[C@H](CCCCN)NC(=O)CNC(=O)[C@@H]2CSSC[C@H](NC1=O)C(=O)N[C@@H](CCCNC(=N)N)C(=O)N[C@H]1CSSC[C@H](NC(=O)[C@H](CCCNC(=N)N)NC(=O)[C@@H]3CSSC[C@H](NC(=O)[C@H]([C@@H](C)CC)NC1=O)C(=O)NCC(=O)N[C@@H](CCCNC(=N)N)C(=O)NCC(=O)N[C@@H]([C@@H](C)CC)C(=O)N3)C(=O)N[C@@H]([C@@H](C)CC)C(=O)N2` [RC-101, R9K-Retrocyclin], the “inhibition of HIV-1 replication (p24)” value (HIV-1 strain IIIB) was “as active as retrocyclin”, the “Hemagglutination seen at a concentration of (lowest concentration that caused hemagglutination)” value (human red blood cells) was > 200 µg/mL and the “hemagglutination compared with retrocyclin” value (human red blood cells) was “much less hemagglutination than retrocyclin; also recorded: less hemagglutination than retrocyclin-1 or retrocyclin-2”.
